According to patent US20260041744A1, “Methods for Treating Pompe Disease” (Amicus Therapeutics, Inc., priority 2022, published 2026):

Assays:
Pompe disease patients = assay: Cross-study comparison of long-term effects on 6MWD and FVC (Example 12); format: in vivo, human; conditions: ERT-experienced patients
Text: FIG. 53A-FIG. 53B show the 6-minute walk test (6MWT) percentage predicted during treatment with alglucosidase alfa. […] The data from year 2 onward show the decline expected in ERT-experienced patients remaining on alglucosidase alfa.

[1] = test system: adult subjects with late-onset Pompe disease (LOPD); assay: Study ATB200-03 (PROPEL): 6-minute walk test (6MWD); format: in vivo, human
Description: Efficacy Analyses. The primary efficacy endpoint (i.e., change from baseline to Week 52 in 6MWD) was analyzed using a parametric analysis of covariance (ANCOVA) model to compare between the new treatment and the control. […] However, the baseline 6MWD could not be used in the model twice (both as a continuous and a categorical variable) due to the expected high point biserial correlation between them. Thus, the 6MWD continuous variable remained in the model but the categorical 6MWD was removed.
The test for the primary endpoint was conducted first at the 1-sided 0.025 significance level, and if significant, the ordered key secondary endpoints were similarly tested at the same significance level. The statistical significance of the key secondary endpoints was interpreted following a hierarchical testing order, each at the 1-sided alpha level of 0.025. […] Primary analyses of efficacy were performed using the mixed-effect model for repeated measures (MMRM) for 6MWD in Intent-to-treat Observed Population (ITT) that includes all available, observed data without any missing data imputation (ITT-OBS) and analysis of covariance (ANCOVA) for all other endpoints in the Intent-to-Treat-Last Observation Carried Forward (ITT-LOCF) Population. A nonparametric randomization based ANCOVA was specified as the first sensitivity analysis for 6MWD and FVC. […] For the purposes of data presentation in this document, 2-sided p-values are reported hereafter, except as otherwise noted.
Analysis of 6MWD was performed using an MMRM model with actual time point of assessments on the ITT-OBS and excluding the outlier Subject 4005-2511. Specifically, the dependent variable is the change from baseline in the assessment. Independent variables include the fixed, categorical effects of treatment, ERT status, and gender, as well as the fixed, continuous covariates of time of assessment (days), baseline 6MWD, baseline age, baseline weight, and baseline height, and the treatment-by-time interaction. A random intercept of subject is also included in the model. Change from baseline at Week 52 for each treatment group and the difference between treatment groups were then estimated with the LS means at Day 364, together with the 95% CIs.

CIMPR = CIMPR (Homo sapiens, UniProt P11717); assay: CIMPR Overlay Assay (far-western blot); format: binding
Sequence of CIMPR (P11717 41-2491, species assumed): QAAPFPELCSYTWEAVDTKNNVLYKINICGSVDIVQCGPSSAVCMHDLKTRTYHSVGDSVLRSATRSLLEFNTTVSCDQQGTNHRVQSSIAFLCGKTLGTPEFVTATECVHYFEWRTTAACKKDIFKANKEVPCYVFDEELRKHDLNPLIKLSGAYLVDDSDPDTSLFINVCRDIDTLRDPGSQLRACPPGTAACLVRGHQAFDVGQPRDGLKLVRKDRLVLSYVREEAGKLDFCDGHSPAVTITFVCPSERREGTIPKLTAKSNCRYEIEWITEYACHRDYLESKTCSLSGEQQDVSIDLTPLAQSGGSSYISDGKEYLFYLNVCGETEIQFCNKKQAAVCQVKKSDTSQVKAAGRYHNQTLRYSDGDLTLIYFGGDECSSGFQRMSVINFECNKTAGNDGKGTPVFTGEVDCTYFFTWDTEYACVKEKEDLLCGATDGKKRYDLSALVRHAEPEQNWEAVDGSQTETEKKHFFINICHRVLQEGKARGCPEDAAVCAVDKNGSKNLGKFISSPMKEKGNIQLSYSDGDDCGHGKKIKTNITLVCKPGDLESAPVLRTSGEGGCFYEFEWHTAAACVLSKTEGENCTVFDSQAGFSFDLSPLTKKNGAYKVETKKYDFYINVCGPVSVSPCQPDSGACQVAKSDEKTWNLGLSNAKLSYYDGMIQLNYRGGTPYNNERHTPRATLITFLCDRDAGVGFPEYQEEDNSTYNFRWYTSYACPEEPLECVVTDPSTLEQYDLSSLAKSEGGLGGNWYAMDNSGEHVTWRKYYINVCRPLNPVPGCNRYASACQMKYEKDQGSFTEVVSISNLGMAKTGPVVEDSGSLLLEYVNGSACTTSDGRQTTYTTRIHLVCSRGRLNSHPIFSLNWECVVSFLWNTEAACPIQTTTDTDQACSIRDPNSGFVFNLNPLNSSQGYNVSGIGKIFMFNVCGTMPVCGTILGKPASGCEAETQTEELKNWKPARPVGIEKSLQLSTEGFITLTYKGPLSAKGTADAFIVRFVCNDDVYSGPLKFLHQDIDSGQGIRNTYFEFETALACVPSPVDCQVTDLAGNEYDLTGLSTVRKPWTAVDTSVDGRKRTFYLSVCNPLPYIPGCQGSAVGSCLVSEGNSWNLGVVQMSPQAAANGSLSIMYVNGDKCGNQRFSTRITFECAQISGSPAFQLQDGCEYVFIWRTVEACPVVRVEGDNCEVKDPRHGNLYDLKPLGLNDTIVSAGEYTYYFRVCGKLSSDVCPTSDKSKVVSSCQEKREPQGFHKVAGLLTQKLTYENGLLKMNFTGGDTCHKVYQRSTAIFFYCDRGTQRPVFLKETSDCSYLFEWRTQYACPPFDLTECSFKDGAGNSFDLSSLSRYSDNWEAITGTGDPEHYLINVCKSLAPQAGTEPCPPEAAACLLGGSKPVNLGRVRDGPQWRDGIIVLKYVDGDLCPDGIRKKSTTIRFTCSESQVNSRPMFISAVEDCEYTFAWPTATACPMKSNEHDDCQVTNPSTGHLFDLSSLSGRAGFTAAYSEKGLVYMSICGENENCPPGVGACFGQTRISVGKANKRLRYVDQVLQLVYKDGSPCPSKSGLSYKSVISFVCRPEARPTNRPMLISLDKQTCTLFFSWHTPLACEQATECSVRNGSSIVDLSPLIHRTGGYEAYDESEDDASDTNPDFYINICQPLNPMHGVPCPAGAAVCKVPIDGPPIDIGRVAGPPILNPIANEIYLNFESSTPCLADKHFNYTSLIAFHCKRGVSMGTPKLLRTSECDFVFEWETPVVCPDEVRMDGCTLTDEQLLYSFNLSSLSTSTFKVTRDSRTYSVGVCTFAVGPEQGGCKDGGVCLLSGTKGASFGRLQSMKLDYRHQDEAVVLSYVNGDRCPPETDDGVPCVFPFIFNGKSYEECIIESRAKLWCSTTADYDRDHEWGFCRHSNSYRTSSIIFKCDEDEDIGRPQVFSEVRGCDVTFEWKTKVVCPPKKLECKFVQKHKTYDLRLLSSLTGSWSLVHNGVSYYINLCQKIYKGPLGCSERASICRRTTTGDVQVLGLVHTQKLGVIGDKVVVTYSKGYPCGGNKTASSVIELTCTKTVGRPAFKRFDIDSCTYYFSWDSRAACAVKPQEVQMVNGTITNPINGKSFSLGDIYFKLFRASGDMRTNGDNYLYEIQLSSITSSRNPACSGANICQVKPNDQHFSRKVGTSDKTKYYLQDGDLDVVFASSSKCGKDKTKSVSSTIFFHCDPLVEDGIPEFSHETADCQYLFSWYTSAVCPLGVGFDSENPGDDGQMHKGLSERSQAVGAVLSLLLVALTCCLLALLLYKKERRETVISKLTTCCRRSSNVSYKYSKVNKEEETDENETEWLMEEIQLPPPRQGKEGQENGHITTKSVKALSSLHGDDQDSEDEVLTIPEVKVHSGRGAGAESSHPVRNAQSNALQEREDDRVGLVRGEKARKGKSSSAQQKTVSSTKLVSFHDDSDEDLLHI
Description: The CIMPR Overlay Assay is a variation on a far-western blot where proteins are separated on an SDS-PAGE, transferred to a nitrocellulose membrane, and incubated with purified CIMPR in the place of a primary antibody as in a conventional western blot. Binding of CIMPR to M6P-containing glycans on rhGAA proteins is then visualized by an anti-CIMPR antibody.

[2] = Baseline, ITT, ERT-naïve Population excluding Subject 4005-2511
[3] = Week 52-LOCF, ERT-experienced Population
[4] = Week 52-LOCF, ITT excluding Subject 4005-2511
[5] = Week 52-LOCF, ITT, ERT-naïve Population excluding Subject 4005-2511
[6] = Week 52-Observed, ERT-experienced Population
[7] = Week 52-Observed, ITT excluding Subject 4005-2511
[8] = Week 52-Observed, ITT, ERT-naïve Population excluding Subject 4005-2511

ATB200/miglustat: two-component therapy: cipaglucosidase alfa (ATB200) administered in conjunction with miglustat (AT2221), a stabilizer of cipaglucosidase alfa
long-term motor function by 6MWD after switching from alglucosidase alfa (Pompe disease patients): progressive gains in motor function as assessed by 6MWD
long-term pulmonary function by FVC after switching from alglucosidase alfa (Pompe disease patients): stability in pulmonary function as assessed by FVC

alglucosidase alfa [reference compound]
6MWD Absolute Value, Mean [1, 2]: 420.94 meters
6MWD Absolute Value, Median [1, 2]: 385.50 meters
6MWD CFBL at Week 52 ([1]; ERT switch (ERT-experienced) population): 0.0 m
6MWD CFBL at Week 52 ([1]; ERT switch (ERT-experienced) population, listed as Alglucosidase alfa): 0.0 (7.2) m
6MWD CFBL at Week 52 ([1]; ERT treatment naive population): 38 m
6MWD CFBL at Week 52 ([1]; ERT treatment naive population, listed as Alglucosidase alfa): +38.3 (11.1) m
mean (SD) change in 6MWD from baseline to Week 52 ([1]; ERT-experienced Population (n=95)): 0.7 (39.84) meters
mean (SD) change in 6MWD from baseline to Week 52 ([1]; ERT-naïve Population excluding Subject 4005-2511 (n=27)): 38.3 (29.32) meters
mean (SD) change in 6MWD from baseline to Week 52 ([1]; ITT population excluding Subject 4005-2511): 8.0 (40.56) meters
6MWD LS mean improvement from baseline, MMRM with actual time point of assessments ([1]; ITT-OBS excluding Subject 4005-2511, Week 52): 8.3 m
Change in 6MWD baseline to Week 52, LS means (SE) from MMRM ([1]; ITT-OBS, ERT-naïve Population excluding Subject 4005-2511): 39.47 (17.15) meters
CHG to week 52 in 6MWD, LS Mean (95% CI) ([1]; MMRM, actual time point of assessments, ITT-OBS Population excluding Subject 4005-2511 (overall)): 8.3 (−2.2, 18.8) m
CHG to Week 52 in 6MWD, LS Mean ([1]; MMRM, actual time point of assessments, ITT-OBS excluding Subject 4005-2511, ERT-naïve Subjects): 52.7
CHG to Week 52 in 6MWD, LS Mean ([1]; MMRM, actual time point of assessments, ITT-OBS, ERT-experienced Subjects): 0.9
6MWD Absolute Value, Mean (SD) [1, 3]: 334.60 (129.506) meters
6MWD Absolute Value, Median [1, 3]: 339.03 meters
6MWD CHG, Mean (SD) [1, 3]: −0.02 (39.345) meters
6MWD CHG, Median [1, 3]: −8.93 meters
6MWD Absolute Value, Mean [1, 4]: 358.19 meters
6MWD Absolute Value, Median [1, 4]: 370.00 meters
6MWD CHG, Mean [1, 4]: 7.24 meters
6MWD CHG, Median [1, 4]: 1.40 meters
6MWD Absolute Value, Mean [1, 5]: 459.28 meters
6MWD Absolute Value, Median [1, 5]: 446.50 meters
6MWD CHG (change from baseline), Mean [1, 5]: 38.34 meters
6MWD CHG (change from baseline), Median [1, 5]: 33.50 meters
6MWD Absolute Value, Mean (SD) [1, 6]: 335.66 (131.666) meters
6MWD Absolute Value, Median [1, 6]: 348.00 meters
6MWD CHG, Mean (SD) [1, 6]: 0.70 (39.841) meters
6MWD CHG, Median [1, 6]: −8.65 meters
6MWD Absolute Value, Mean [1, 7]: 359.70 meters
6MWD Absolute Value, Median [1, 7]: 371.75 meters
6MWD CHG, Mean [1, 7]: 8.02 meters
6MWD CHG, Median [1, 7]: 3.15 meters
6MWD Absolute Value, Mean [1, 8]: 459.28 meters
6MWD Absolute Value, Median [1, 8]: 446.50 meters
6MWD CHG (change from baseline), Mean [1, 8]: 38.34 meters
6MWD CHG (change from baseline), Median [1, 8]: 33.50 meters
LS Mean (SE), Change from Baseline in 6MWD ([1]; Week 52, ANCOVA, ITT-LOCF excluding outliers with externally studentized residuals >3): 6.95 (6.951) meters
6MWD CHG, LS mean (SE) ([1]; Week 52, MMRM, ITT-OBS excluding Subject 4005-2511): 7.10 (7.043) meters
6MWD CHG, LS means (SE) ([1]; Week 52, MMRM, ITT-OBS, ERT-experienced Population): 0.59 (7.569) meters
6MWD CFBL at Week 52 ([1]; overall ERT switch + ERT naïve population): 7 m
6MWD CFBL at Week 52 ([1]; overall ERT switch + ERT naïve population, listed as Alglucosidase alfa): +7.2 (6.6) m
6MWD CFBL at Week 52 ([1]; overall ERT switch + ERT naïve population, listed as alglucosidase alfa/placebo): 7 m
CIMPR binding in overlay assay (CIMPR): a band with a much lower intensity
